Laboratory results published in patent US6479531B1, “Gastrin and cholecystokinin receptor ligands” (James Black Foundation Limited, priority 1998, dated 2002).

molecular target: T1, gastrin receptor (Rattus norvegicus, UniProt P30553); test: gastrin antagonist activity in immature rat stomach assay (pentagastrin dose-response, acid secretion); conditions: isolated immature rat stomach, cumulative pentagastrin dose-response curves
T1 construct: The stomach was excised and flushed with ca. 1 ml of unbuffered physiological saline solution; from tissue; host or cells: isolated whole stomach of immature rats (ca. 21 days old)
T1 sequence (P30553 1-452): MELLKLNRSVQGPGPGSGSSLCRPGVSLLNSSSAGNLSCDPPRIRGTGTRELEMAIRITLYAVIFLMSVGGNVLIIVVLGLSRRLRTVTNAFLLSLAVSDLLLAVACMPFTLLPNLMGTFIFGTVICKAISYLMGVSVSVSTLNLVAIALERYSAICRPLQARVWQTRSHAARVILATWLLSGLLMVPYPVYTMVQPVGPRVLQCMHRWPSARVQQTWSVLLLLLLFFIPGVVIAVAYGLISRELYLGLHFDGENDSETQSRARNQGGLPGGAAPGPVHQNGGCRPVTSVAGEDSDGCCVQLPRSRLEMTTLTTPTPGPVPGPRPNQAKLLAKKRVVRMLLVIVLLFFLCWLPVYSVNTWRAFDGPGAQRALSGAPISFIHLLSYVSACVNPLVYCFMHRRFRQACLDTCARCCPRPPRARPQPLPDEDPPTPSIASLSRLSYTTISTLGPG
In short: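 Gastrin antagonism was measured as the effect on cumulative pentagastrin dose-response curves of acid output, recorded by pH electrode in the perfusate of an excised immature rat stomach (ca. 21 days old). Test compound was placed in the serosal bath (37°, 3×10^−8 M 5-methylfurmethide) 60 min before pentagastrin.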

Row | Molecule | Gastrin pKb
1 | 5-{[5-(2-Adamantan-1-yl-ethyl)-2-[1-(2-methyl-propyl)-piperidin-2-yl])-1H-imidazole-4-carbonyl]-amino}-2-methyl-benzoic Acid [Example 142] | 6.75
2 | Cc1ccc(NC(=O)c2nc([C@H]3CC4C=C[C@@H]3C4)[nH]c2COC23CC4CC(CC(C4)C2)C3)cc1C(=O)O [Example 289, endo-5-{[5-(Adamantan-1-yloxymethyl)-2-((1S,2S)-bicyclo[2.2.1]hept-5-en-2-yl)-1H-imidazole-4-carbonyl]-amino}-2-methyl-benzoic Acid] | 8.74
3 | O=C(O)c1cccc(NC(=O)c2nc(C3CC4C=CC3C4)[nH]c2COC23CC4CC(CC(C4)C2)C3)c1 (racemic) [Example 234, (±)-endo-3-{[5-(Adamantan-1-yloxymethyl)-2-bicyclo[2.2.1]hept-5-en-2-yl-1H-imidazole-4-carbonyl]-amino}-benzoic Acid] | 8.71
4 | O=C(O)Cc1cccc(NC(=O)c2nc(C3CC4CCC3C4)[nH]c2CCC23CC4CC(CC(C4)C2)C3)c1 (racemic) [Example 210, (±)-exo-(3-{[5-(2-Adamantan-1-yl-ethyl)-2-bicyclo[2.2.1]hept-2-yl-1H-imidazole-4-carbonyl]-amino}-phenyl)-acetic Acid] | 6.89

same assay, conditions: isolated immature rat stomach, cumulative pentagastrin dose-response curves, read-out: Gastrin pKb (converted)

Row | Molecule | Kb
5 | Cc1ccc(NC(=O)c2nc(-c3ccccc3C)[nH]c2COC23CC4CC(CC(C4)C2)C3)cc1C(=O)O [Example 305, 5-{[5-(Adamantan-1-yloxymethyl)-2-o-tolyl-1H-imidazole-4-carbonyl]-amino}-2-methyl-benzoic Acid] | 10 nM
6 | O=C(NO)c1cccc(NC(=O)c2nc(C3CCCCC3)[nH]c2COC23CC4CC(CC(C4)C2)C3)c1 [Example 286, 5-(Adamantan-1-yloxymethyl)-2-cyclohexyl-1H-imidazole-4-carboxylic Acid (3-hydroxycarbamoyl-phenyl)-amide] | 26.9 nM
7 | Cn1c(C2CCCCC2)nc(C(=O)Nc2cccc(CC(=O)O)c2)c1CCC12CC3CC(CC(C3)C1)C2 [Example 215, (3-{[5-(2-Adamantan-1-yl-ethyl)-2-cyclohexyl-1-methyl-1H-imidazole-4-carbonyl]-amino}-phenyl)-acetic Acid] | 363 nM
8 | Cc1cc(C)c(-c2nc(C(=O)Nc3cccc(CC(=O)O)c3)c(CCC34CC5CC(CC(C5)C3)C4)[nH]2)c(C)c1 [Example 157, (3-{[5-(2-Adamantan-1-yl-ethyl)-2-(2,4,6-trimethyl-phenyl)-1H-imidazole-4-carbonyl]-amino}-phenyl)-acetic Acid] | 219 nM
9 | Cc1ccccc1-c1nc(C(=O)Nc2cccc(C(=O)O)c2)c(COC23CC4CC(CC(C4)C2)C3)[nH]1 [Example 304, 3-{[5-(Adamantan-1-yloxymethyl)-2-o-tolyl-1H-imidazole-4-carbonyl]-amino}-benzoic Acid] | 24 nM
10 | COc1cc(OC)c(-c2nc(C(=O)Nc3cccc(C(=O)O)c3)c(CCC34CC5CC(CC(C5)C3)C4)[nH]2)c(OC)c1 [Example 160, 3-{[5-(2-Adamantan-1-yl-ethyl)-2-(2,4,6-trimethoxy-phenyl)-1H-imidazole-4-carbonyl]-amino}-benzoic Acid] | 912 nM
11 | CC1(C)C2CC[C@@]1(C)C(c1nc(C(=O)Nc3cccc(C(=O)O)c3)c(CCC34CC5CC(CC(C5)C3)C4)[nH]1)C2 (mixture of isomers) [Example 206, 3-{[5-(2-Adamantan-1-yl-ethyl)-2-[(1S,2RS)-1,7,7-trimethyl-bicyclo[2.2.1]hept-2-yl]-1H-imidazole-4-carbonyl]-amino}-benzoic Acid] | 263 nM
12 | Cc1cc(C)c(-c2nc(C(=O)Nc3ccc(F)c(C(=O)O)c3)c(CCC34CC5CC(CC(C5)C3)C4)[nH]2)c(C)c1 [Example 156, 5-{[5-(2-Adamantan-1-yl-ethyl)-2-(2,4,6-trimethyl-phenyl)-1H-imidazole-4-carbonyl]-amino}-2-fluoro-benzoic Acid] | 63.1 nM
13 | Cc1ccccc1-c1nc(CNc2cccc(C(=O)O)c2)c(CCC23CC4CC(CC(C4)C2)C3)n1C [Example 279, 3-{[5-(2-Adamantan-1-yl-ethyl)-1-methyl-2-o-tolyl-1H-imidazol-4-ylmethyl]-amino}-benzoic Acid] | 145 nM
14 | O=C(O)c1cc(NC(=O)c2nc(C34CCC(CC3)CC4)[nH]c2CCC23CC4CC(CC(C4)C2)C3)ccc1F [Example 213, 5-{[5-(2-Adamantan-1-yl-ethyl)-2-bicyclo[2.2.2]oct-1-yl-1H-imidazole-4-carbonyl]-amino}-2-fluoro-benzoic Acid] | 75.9 nM
15 | C[C@H](NC(=O)c1cccc(NC(=O)c2nc(C3CCCCC3)[nH]c2CCC23CC4CC(CC(C4)C2)C3)c1)C(=O)O [Example 272, (S)-2-(3-{[5-(2-Adamantan-1-yl-ethyl)-2-cyclohexyl-1H-imidazole-4-carbonyl]-amino}-benzoylamino)-propionic Acid] | 186 nM
16 | O=C(O)CNC(=O)c1cccc(NC(=O)c2nc(C3CCCCC3)[nH]c2CCC23CC4CC(CC(C4)C2)C3)c1 [Example 263, (3-{[5-(2-Adamantan-1-yl-ethyl)-2-cyclohexyl-1H-imidazole-4-carbonyl]-amino}-benzoylamino)-acetic Acid] | 75.9 nM
17 | O=C(O)c1cccc(NC(=O)c2nc(C3C4C=CC3C=C4)[nH]c2COC23CC4CC(CC(C4)C2)C3)c1 (stereo not drawn) [Example 288, 3-{[5-(Adamantan-1-yloxymethyl)-2-bicyclo[2.2.1]hepta-2,5-dien-7-yl-1H-imidazole-4-carbonyl]-amino}-benzoic Acid] | 13.2 nM
18 | Cc1ccccc1-c1nc(CCC23CC4CC(CC(C4)C2)C3)c(C=Cc2cccc(C(=O)O)c2)n1C [Example 276, 3-{2-[5-(2-Adamantan-1-yl-ethyl)-3-methyl-2-o-tolyl-3H-imidazol-4-yl]-vinyl}-benzoic Acid] | 1170 nM
19 | CC(C)(C(=O)O)c1cccc(NC(=O)c2nc(C3CCCCC3)[nH]c2CCC23CC4CC(CC(C4)C2)C3)c1 [Example 256, 2-(3-{[5-(2-Adamantan-1-yl-ethyl)-2-cyclohexyl-1H-imidazole-4-carbonyl]-amino}-phenyl)-2-methyl-propionic Acid] | 708 nM
20 | O=C(O)c1cccc(NC(=O)c2nc(C3CCCCCCC3)[nH]c2COC23CC4CC(CC(C4)C2)C3)c1 [Example 297, 3-{[5-(Adamantan-1-yloxymethyl)-2-cyclooctyl-1H-imidazole-4-carbonyl]-amino}-benzoic Acid] | 0.851 nM
21 | O=C(O)c1cccc(NC(=O)c2nc(C3CCCCCC3)[nH]c2COC23CC4CC(CC(C4)C2)C3)c1 [Example 228, 3-{[5-(Adamantan-1-yloxymethyl)-2-cycloheptyl-1H-imidazole-4-carbonyl]-amino}-benzoic Acid] | 0.724 nM
22 | O=C(O)c1cc(NC(=O)c2nc(C34CCC(CC3)CC4)[nH]c2COC23CC4CC(CC(C4)C2)C3)ccc1F [Example 223, 5-{[5-(Adamantan-1-yloxymethyl)-2-bicyclo[2.2.2]oct-1-yl-1H-imidazole-4-carbonyl]-amino}-2-fluoro-benzoic Acid] | 0.776 nM
23 | Cc1ccc(NC(=O)c2nc(C3CCCCC3)[nH]c2CCC23CCC(CC2)CC3)cc1C(=O)O [Example 176, 5-{[5-(2-Bicyclo[2.2.2]oct-1-yl-ethyl)-2-cyclohexyl-1H-imidazole-4-carbonyl]-amino}-2-methyl-benzoic Acid] | 6.61 nM
24 | Cc1cc(C)c(-c2nc(C(=O)Nc3ccc(C)c(C(=O)O)c3)c(CCC34CC5CC(CC(C5)C3)C4)[nH]2)c(C)n1 [Example 183, 5-{[5-(2-Adamantan-1-yl-ethyl)-2-(2,4,6-trimethyl-pyridine-3-yl)-1H-imidazole-4-carbonyl]-amino}-2-methyl-benzoic Acid] | 42.7 nM
